Measurements reported in patent US20260109708A1, “COMPOUNDS AND COMPOSITIONS USEFUL AS DEGRADERS OF MK2 KINASE” (Celgene Corporation, priority 2023, published 2026).

biological target: T1, p38a activated, mitogen-activated protein kinase-activated protein kinase 2 (MAPKAP-K2 or MK2) enzyme (Homo sapiens, UniProt P49137); assay: MK2 OMNIA biochemical assay (AssayQuant continuous-read kinase assay); conditions: [MK-2]=0.05 nM, [ATP]=100 μM, [AQT0425]=10 μM
T1 construct: purchased Invitrogen PV3317
T1 sequence (P49137 whole entry): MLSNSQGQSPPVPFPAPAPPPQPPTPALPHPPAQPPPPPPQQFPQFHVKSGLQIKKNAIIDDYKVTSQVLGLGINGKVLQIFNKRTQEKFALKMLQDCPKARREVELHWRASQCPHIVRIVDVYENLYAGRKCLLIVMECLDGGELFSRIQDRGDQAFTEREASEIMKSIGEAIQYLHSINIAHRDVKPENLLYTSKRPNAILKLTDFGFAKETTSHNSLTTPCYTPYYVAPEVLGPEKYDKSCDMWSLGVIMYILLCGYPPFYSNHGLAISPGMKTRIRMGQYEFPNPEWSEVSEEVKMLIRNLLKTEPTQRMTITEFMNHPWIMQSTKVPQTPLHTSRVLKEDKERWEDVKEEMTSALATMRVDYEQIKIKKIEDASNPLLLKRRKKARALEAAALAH
Outline: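 Continuous fluorescence read (ex 360/em 485) of p38a-activated MK2 phosphorylating Sox-conjugated peptide AQT0425 in 50 mM HEPES pH 7.5, 10 mM MgCl2, 1 mM DTT; reads every 71 s for 240 min at room temperature. IC50 from initial linear slopes; apparent Kinact from single-exponential Vobs fits.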

SMILES | IC50 [nM]
C[C@@H]1CNc2c(sc3ccc4nc(-c5ccc(C(=O)N[C@H]6CC[C@H](CCN7CCN(c8ccc(C9CCC(=O)NC9=O)cc8)CC7)CC6)cc5F)ccc4c23)C(=O)N1 (stereo partly drawn) [Ex 10, N-((trans)-4-(2-(4-(4-(2,6-Dioxopiperidin-3-yl)phenyl)piperazin-1-yl)ethyl)cyclohexyl)-3-fluoro-4-((R)-10-methyl-8-oxo-9,10,11,12-tetrahydro-8H-[1,4]diazepino[5′,6′:4,5]thieno[3,2-f]quinolin-3-yl)benzamide] | 151 to 500
C[C@@H]1CNc2c(sc3ccc4nc(-c5ccc(C6CN(CCN7CCN(c8ccc(C9CCC(=O)NC9=O)cc8)CC7)C6)cc5)ccc4c23)C(=O)N1 (stereo partly drawn) [Ex 30, 3-(4-(4-(2-(3-(4-((R)-10-Methyl-8-oxo-9,10,11,12-tetrahydro-8H-[1,4]diazepino[5′,6′:4,5]thieno[3,2-f]quinolin-3-yl)phenyl)azetidin-1-yl)ethyl)piperazin-1-yl)phenyl)piperidine-2,6-dione] | < 150

Next, values leading:

IC50 [nM] | SMILES
< 150 | C[C@@H]1CNc2c(sc3ccc4nc(-c5ccc(N6CCN(C(=O)C(=O)N7CCN(c8ccc(C9CCC(=O)NC9=O)cc8)CC7)CC6)cc5)ccc4c23)C(=O)N1 (stereo partly drawn) [Ex 23, 3-(4-(4-(2-(4-(4-((R)-10-Methyl-8-oxo-9,10,11,12-tetrahydro-8H-[1,4]diazepino[5′,6′:4,5]thieno[3,2-f]quinolin-3-yl)phenyl)piperazin-1-yl)-2-oxoacetyl)piperazin-1-yl)phenyl)piperidine-2,6-dione]
< 150 | C[C@@H]1CNc2c(sc3ccc4nc(-c5cccc(N6CC7CC(C6)N7CCN6CCN(c7ccc8c(C9CCC(=O)NC9=O)nn(C)c8c7)CC6)c5)ccc4c23)C(=O)N1 (stereo partly drawn) [Ex 15, 3-(1-Methyl-6-(4-(2-(3-(3-((R)-10-methyl-8-oxo-9,10,11,12-tetrahydro-8H-[1,4]diazepino[5′,6′:4,5]thieno[3,2-f]quinolin-3-yl)phenyl)-3,6-diazabicyclo[3.1.1]heptan-6-yl)ethyl)piperazin-1-yl)-1H-indazol-3-yl)piperidine-2,6-dione]
< 150 | C[C@@H]1CNc2c(sc3ccc4nc(-c5ccc(N6CC(CN7CCN(c8ccc(C9CCC(=O)NC9=O)cc8)CC7)C6)cc5)ccc4c23)C(=O)N1 (stereo partly drawn) [Ex 41, 3-(4-(4-((1-(4-((R)-10-Methyl-8-oxo-9,10,11,12-tetrahydro-8H-[1,4]diazepino[5′,6′:4,5]thieno[3,2-f]quinolin-3-yl)phenyl)azetidin-3-yl)methyl)piperazin-1-yl)phenyl)piperidine-2,6-dione]
